This is an account of results in PubChem BioAssay AID1259411 (Chemical Carcinogenesis Research Information System (CCRIS), 2018).

This series relates to rodent carcinogenicity bioassays, tumor incidence. The series is described as follows: CCRIS carcinogenicity studies. An outline of the steps: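 NCI-built, expert-reviewed records of carcinogenicity and related test outcomes (mutagenicity, tumor promotion/inhibition) compiled from published and report sources, historical span 1985-2011, not updated.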

Calls of active or inactive are those of the source. No rule for the calls is given here.

Take `FC(F)(F)C(Cl)Cl`: the carcinogen call by setting is: (Species: RAT, Strain/Sex: CRL:CDBR/FEMALE, Route: INHALATION, Dose: 0, 300, 1000, 5000 PPM 6 HR/D 5 D/WK FOR 2 YR (STUDY DURATION: 2 YR), Dose: 0, 300, 1000, 5000 PPM 6 HR/D 5 D/WK FOR 2 YR (STUDY DURATION: 2 YR), Tumor Site: Type of Lesion: LIVER: ADENOMA, CHOLANGIOFIBROMA) “active; positive”; (Species: RAT, Strain/Sex: CRL:CDBR/MALE, Route: INHALATION, Dose: 0, 300, 1000, 5000 PPM 6 HR/D 5 D/WK FOR 2 YR (STUDY DURATION: 2 YR), Dose: 0, 300, 1000, 5000 PPM 6 HR/D 5 D/WK FOR 2 YR (STUDY DURATION: 2 YR), Tumor Site: Type of Lesion: LIVER: ADENOMA, PANCREAS: ADENOMA, TESTES: ADENOMA, Tumor Site: Type of Lesion: LIVER: ADENOMA, PANCREAS: ADENOMA, TESTES: ADENOMA) “active; positive”.

`CCOP(=S)(OCC)SC1OCCOC1SP(=S)(OCC)OCC` (stereo not drawn): the carcinogen call is “inactive; negative” (Species: MOUSE, Strain/Sex: B6C3F1/FEMALE, Route: ORAL, Dose: 0, 467, 935 PPM IN DIET, TWA, Dose: 0, 467, 935 PPM IN DIET, TWA); “inactive; negative” (Species: MOUSE, Strain/Sex: B6C3F1/MALE, Route: ORAL, Dose: 0, 284, 567 PPM IN DIET, TWA, Dose: 0, 284, 567 PPM IN DIET, TWA); “inactive; negative” (Species: RAT, Strain/Sex: OSBORNE-MENDEL/FEMALE, Route: ORAL, Dose: 0, 45, 90 PPM IN DIET, TWA, Dose: 0, 45, 90 PPM IN DIET, TWA); “inactive; negative” (Species: RAT, Strain/Sex: OSBORNE-MENDEL/MALE, Route: ORAL, Dose: 0, 90, 180 PPM IN DIET, TWA, Dose: 0, 90, 180 PPM IN DIET, TWA).

Regarding `Nc1ccc(/C=C/c2ccccc2)cc1`, the carcinogen call is, setting by setting: (Species: RAT, Strain/Sex: HOLTZMAN/FEMALE, Route: ORAL, Dose: 0, 0.0038% IN DIET FOR 13 WK BEGINNING AT WEANING (STUDY DURATION: 40 WK), Tumor Site: Type of Lesion: EAR DUCT GLAND: CARCINOMA) “active; positive”; (Species: RAT, Strain/Sex: HOLTZMAN/FEMALE, Route: SUBCUTANEOUS, Dose: 0. 5.3 UMOL SUSPENDED IN 0.2 ML TRICAPRYLIN 1/WK FOR 5 WK (STUDY DURATION: 10 MO), Tumor Site: Type of Lesion: MAMMARY GLAND: CARCINOMA) “active; positive”.

Turning to `S=[Se]`, the carcinogen call runs as follows: (Species: MOUSE, Strain/Sex: B6C3F1/FEMALE, Route: GAVAGE, Dose: 0, 20, 100 MG/KG IN 0.5% AQ CMC, Dose: 0, 20, 100 MG/KG IN 0.5% AQ CMC, Tumor Site: Type of Lesion: LUNG: ALVEOLAR/BRONCHIOLAR ADENOMA OR CARCINOMA, LIVER: HEPATOCELLULAR CARCINOMA) “active; positive”; (Species: MOUSE, Strain/Sex: B6C3F1/MALE, Route: GAVAGE, Dose: 0, 20, 100 MG/KG IN 0.5% AQ CMC, Dose: 0, 20, 100 MG/KG IN 0.5% AQ CMC) “inactive; negative”; (Species: MOUSE, Strain/Sex: ICR/FEMALE, Route: DERMAL, Dose: 0, 0.5, 1.0 MG/KG IN SALINE SOLN CONT 0.5% CMC 3/WK FOR 86 WK, Dose: 0, 0.5, 1.0 MG/KG IN SALINE SOLN CONT 0.5% CMC 3/WK FOR 86 WK) “inactive; negative”; (Species: MOUSE, Strain/Sex: ICR/MALE, Route: DERMAL, Dose: 0, 0.5, 1.0 MG/KG IN SALINE SOLN CONT 0.5% CMC 3/WK FOR 86 WK, Dose: 0, 0.5, 1.0 MG/KG IN SALINE SOLN CONT 0.5% CMC 3/WK FOR 86 WK) “inactive; negative”; (Species: RAT, Strain/Sex: F344/FEMALE, Route: GAVAGE, Dose: 0, 3, 15 MG/KG IN 0.5% AQ CMC, Dose: 0, 3, 15 MG/KG IN 0.5% AQ CMC, Tumor Site: Type of Lesion: LIVER: HEPATOCELLULAR CARCINOMA OR NEOPLASTIC NODULE) “active; positive”; (Species: RAT, Strain/Sex: F344/MALE, Route: GAVAGE, Dose: 0, 3, 15 MG/KG IN 0.5% AQ CMC, Dose: 0, 3, 15 MG/KG IN 0.5% AQ CMC, Tumor Site: Type of Lesion: LIVER: HEPATOCELLULAR CARCINOMA OR NEOPLASTIC NODULE) “active; positive”.

On to `O=C(O)[C@H]1O[C@@H](N(O)c2ccc3c(c2)Cc2ccccc2-3)[C@H](O)[C@@H](O)[C@@H]1O`, for which the carcinogen call (Species: RAT, Strain/Sex: F344/MALE, Route: INJECTION, Dose: 0, 1 UMOL IN 0.5 ML OF SOLUTION CONTAINING 0.4 ML PHOSPHATE BUFFERED SALINE/ GENTAMYCIN (PH 7) AND 0.1 ML DMSO INJECTED, Tumor Site: Type of Lesion: BLADDER: CARCINOMA) was “active; positive”.

As to `O=S1(=O)CCCO1`, the carcinogen call reads like this: (Species: MOUSE, Strain/Sex: ICR/FEMALE, Route: SUBCUTANEOUS, Dose: 0.3 MG IN WATER 1/WK FOR 63 WK, Tumor Site: Type of Lesion: INJECTION SITE: ADENOACANTHOMA, SARCOMA) “active; positive”; (Species: RAT, Strain/Sex: STRAIN-BD, Route: SUBCUTANEOUS, Dose: 15, 30 MG/KG IN ARACHIS OIL 1/WK FOR 1 YR, Tumor Site: Type of Lesion: INJECTION SITE: MYOSARCOMA, FIBROSARCOMA) “active; positive”; (Species: RAT, Strain/Sex: STRAIN-BD, Route: SUBCUTANEOUS, Dose: 15, 30 MG/KG IN WATER 1/WK FOR 1 YR, Tumor Site: Type of Lesion: INJECTION SITE: SARCOMA) “active; positive”; (Species: RAT, Strain/Sex: STRAIN-CD/FEMALE, Route: GAVAGE, Dose: 28, 56 MG/KG IN WATER 2/WK FOR 78 WK (LOW DOSE) OR 32 WK (HIGH DOSE), Tumor Site: Type of Lesion: BRAIN (CEREBELLUM, CEREBRUM): MALIGNANT GLIOMA, MAMMARY GLAND: ADENOCARCINOMA) “active; positive”; (Species: RAT, Strain/Sex: STRAIN-CD/MALE, Route: GAVAGE, Dose: 28, 56 MG/KG IN WATER 2/WK FOR 78 WK (LOW DOSE) OR 32 WK (HIGH DOSE), Tumor Site: Type of Lesion: BRAIN (CEREBELLUM, CEREBRUM): MALIGNANT GLIOMA) “active; positive”.

`CCCC[N+](=O)[O-]`: for the setting “Species: RAT, Strain/Sex: F344/MALE, Route: GAVAGE, Dose: 0, 2 MMOL/KG BW 1/WK FOR 50 WK (STUDY DURATION: 83 WK)”, the carcinogen call was “inactive; negative”.

As for `O=Nc1ccc2ccccc2c1`, the carcinogen call (Species: MOUSE, Strain/Sex: SWISS/MALE, Route: SUBCUTANEOUS, Dose: 100 UG IN GELATIN ON FIRST, THIRD AND FIFTH D OF LIFE, Tumor Site: Type of Lesion: LIVER: HEPATOMA) was “active; positive”.

Take `NC(=O)N(CCc1ccccc1)N=O`: the carcinogen call was “active; positive” (Species: RAT, Strain/Sex: F344/FEMALE, Route: GAVAGE, Dose: 0, 20 MG/ML (TOTAL DOSE 0; 0.9 MMOL) IN 2 ML ETHYL ACETATE AND CORN OIL (1:2) 2/WK FOR 22 WK (STUDY DURATION: LIFETIME), Dose: 0, 20 MG/ML (TOTAL DOSE 0; 0.9 MMOL) IN 2 ML ETHYL ACETATE AND CORN OIL (1:2) 2/WK FOR 22 WK (STUDY DURATION: LIFETIME), Tumor Site: Type of Lesion: LIVER: TUMOR, FORESTOMACH: SQUAMOUS CELL CARCINOMA); “active; positive” (Species: RAT, Strain/Sex: F344/FEMALE, Route: GAVAGE, Dose: 0, 20 MG/ML IN 0.2 ML ETHYL ACETATE AND CORN OIL 2/WK FOR 22 WK (STUDY DURATION: LIFESPAN), Tumor Site: Type of Lesion: FORESTOMACH: TUMOR, LIVER: TUMOR); “active; positive” (Species: RAT, Strain/Sex: F344/MALE, Route: GAVAGE, Dose: 0, 20 MG/ML (TOTAL DOSE 0; 0.9 MMOL) IN 2 ML ETHYL ACETATE AND CORN OIL (1:2) 2/WK FOR 22 WK (STUDY DURATION: LIFETIME), Dose: 0, 20 MG/ML (TOTAL DOSE 0; 0.9 MMOL) IN 2 ML ETHYL ACETATE AND CORN OIL (1:2) 2/WK FOR 22 WK (STUDY DURATION: LIFETIME), Tumor Site: Type of Lesion: LIVER: TUMOR, FORESTOMACH: SQUAMOUS CELL CARCINOMA); “active; positive” (Species: RAT, Strain/Sex: F344/MALE, Route: GAVAGE, Dose: 0, 20 MG/ML IN 0.2 ML ETHYL ACETATE AND CORN OIL 2/WK FOR 22 WK (STUDY DURATION: LIFESPAN), Tumor Site: Type of Lesion: FORESTOMACH: TUMOR, LIVER: TUMOR, DUODENUM: TUMOR, Tumor Site: Type of Lesion: FORESTOMACH: TUMOR, LIVER: TUMOR, DUODENUM: TUMOR).

For the compound `O=C1OCCO1`, the carcinogen call reads like this: (Species: RAT, Strain/Sex: STRAIN-CD/FEMALE, Route: ORAL, Dose: 25000, 50000 PPM IN DIET FOR 78 WK) “inactive; negative”; (Species: RAT, Strain/Sex: STRAIN-CD/MALE, Route: ORAL, Dose: 25000, 44360 PPM IN DIET FOR 78 WK, TWA) “inactive; negative”.
